Like-named read-outs stand apart in the source and are kept apart here.
Tested on: Botrytis cinerea
Test: Efficacy against Botrytis cinerea on apple (fruit cv. Golden Delicious)
Assay type: in vivo
Settings: 120 h, read-out: % activity observed
From the text: A synergistic effect exists whenever the action of an active ingredient combination is greater than the sum of the actions of the individual components.
The action to be expected E for a given active ingredient combination obeys the so-called COLBY formula and can be calculated as follows (COLBY, S. R. “Calculating synergistic and antagonistic responses of herbicide combination”. Weeds, Vol. 15, pages 20-22; 1967):
ppm=milligrams of active ingredient (=a.i.) per litre of spray mixture
X=% action by active ingredient I using p ppm of active ingredient
Y=% action by active ingredient II using q ppm of active ingredient.
According to Colby, the expected (additive) action of active ingredients I+II using p+q ppm of active ingredient is [formula]
If the action actually observed (O) is greater than the expected action (E), then the action of the combination is superadditive, i.e. there is a synergistic effect.
In an apple fruit cv. Golden Delicious 3 holes were drilled and each filled with 50 μl droplets of the formulated test composition. Two hours after application 50 μl of a spore suspension of B. cinerea (4×10^5 conidia/ml) were pipetted on the application sites. After an incubation period of 5 days at 20° C. in a growth chamber the % infected fruit area was determined. The activity was calculated relative to the disease rate on untreated apple fruits. The fungicide interactions in the mixture were calculated according to Colby.

## N#Cc1c[nH]cc1-c1cccc2c1OC(F)(F)O2 [Fludioxonil, 4-(2,2-difluoro-1,3-benzodioxol-7-yl)pyrrole-3-carbonitrile]
  inhibition at 0.1 µg/mL: 2%
  inhibition at 0.5 µg/mL: 24%
  inhibition at 2.5 µg/mL: 54%
  inhibition at 5 µg/mL: 67%

## c1ccc2[nH]c(-c3cscn3)nc2c1 [Thiabendazole, 2-(thiazol-4-yl)benzimidazol]
Thiabendazole 0.5 mg a.i./l, apple, 5 days at 20° C.
  inhibition at 0.5 µg/mL: 5%
Thiabendazole 1 mg a.i./l, apple, 5 days at 20° C.
  inhibition at 1 µg/mL: 10%
Thiabendazole 2.5 mg a.i./l, apple, 5 days at 20° C.
  inhibition at 2.5 µg/mL: 10%
Thiabendazole 5 mg a.i./l, apple, 5 days at 20° C.
  inhibition at 5 µg/mL: 12%
Thiabendazole 25 mg a.i./l, apple, 5 days at 20° C.
  inhibition at 25 µg/mL: 5%
